Laboratory results reported in patent US20260077018A1, “TREATMENT OF MILD TRAUMATIC BRAIN INJURY” (OXEIA BIOPHARMACEUTICALS, INC., priority 2022, published 2026).
No end group written: not given here. *: point of attachment. Octanoyl = CCCCCCCC(=O)*

Test system: persistently symptomatic concussion patients
Assay: Phase 2 study of OXE-103 in persistently symptomatic concussion: PCSS symptom scoring
Type: in vivo, human
Conditions: for PCSS symptom balance_problems / PCSS symptom difficulty_concentrating / PCSS symptom difficulty_remembering / PCSS symptom dizziness / PCSS symptom drowsiness / PCSS symptom fatigue / PCSS symptom feeling_in_a_fog / PCSS symptom feeling_more_emotional / PCSS symptom feeling_slowed_down / PCSS symptom headache / PCSS symptom irritability / PCSS symptom nausea / PCSS symptom neck_pain / PCSS symptom nervous_anxious / PCSS symptom numbness_or_tingling / PCSS symptom sadness / PCSS symptom sensitivity_to_light / PCSS symptom sensitivity_to_noise / PCSS symptom sleeping_less_than_usual / PCSS symptom sleeping_more_than_usual / PCSS symptom trouble_falling_asleep / PCSS symptom visual_problems / PCSS symptom vomiting: OXE-103 Treated, aggregated; for 20% Responders - PCSS: Number of Responders / 20% Responders - PCSS: Responder % / 30% Responders - PCSS: Number of Responders / 30% Responders - PCSS: Responder %: Treated, 13 subjects
Excerpt: Describe the change in symptom burden in sub-acute concussion for the two groups. A maximum of 50 subjects are enrolled, but recruiting stops if each arm has 20 participants, diagnosed with persistent concussion symptoms 28 days post injury who complete the study. Patients are randomized 1:1 to placebo versus OXE-103. The Post-Concussion Symptom Score questionnaire (PCSS) is used as an overall measure of symptom burden. The number of symptoms and severity at each time point are also measures of interest. In addition, subjects are asked to identify and rank the 4 most bothersome symptoms. Without being bound by theory, it is hypothesized that changes in these most bothersome symptoms have a higher correlation to improvement in quality of life. A visual comparison of change in the two groups is made. A change of 20% is considered to be clinically meaningful. This primary aim describes the change in symptoms between day 1 and day 14.
Described herein is a randomized, double-blind, placebo-controlled design where 40 subjects will be randomized to either a placebo cohort or a treatment with OXE-103 cohort. We randomize using the RedCap database. The database is set up to share randomization allocation only with the investigational pharmacy. All subjects are consented and begin the screening period within 28 days post-injury. There is a 7-day screening period prior to randomization and commencement of study treatment to allow for assessment of stability of symptom burden. This screening period must start no later than 28 days post-injury. Starting with Day 1 (end of screening period), the treatment cohort receives OXE-103 40ug/kg SC twice daily by self-injection and the placebo group receives a placebo injection SC twice daily. Study drug and placebo are maintained and dispensed by Investigational Pharmacy. Subjects receive an 8-day supply of syringes pre-loaded with OXE-103 or placebo. Each cohort receives the 2nd set of syringes with OXE-103 or placebo at the day 7 visit. No therapies other than OXE-103 are administered during the 14-day treatment period to either cohort. After completion of 14 days of either placebo or OXE-103 treatment, starting with the Day 14 visit, other medications and therapies can be initiated for either cohort as needed.
Symptom reduction (AIM 1): Our primary goal is to describe the change in number of symptoms and/or severity in sub-acute concussion with treatment with OXE-103 using the PCSS at days 1 and 15. We will also collect data at days 21 and 44 to potentially describe long term changes and potential lasting effect (AIM 4).
Subjects complete the PCSS at the following timepoints[17]: upon signing consent (score must 20) (day −7), mid-way through the screening period (day −3), prior to assignment of a treatment cohort (score must 20) (day 1), as well as days 4, 8, 11, 15, 21 and 44. Subjects are instructed to record their symptoms at the same time of day for each assessment timepoint. There can be a two-hour window either way. (e.g. 12 PM+/−2 hrs.) The PCSS is recorded via a RedCap survey. The PCSS is a self-reported assessment of 22 symptoms using a Likert-type scale ranging from 0-6, with 0 indicating no difficulty with the outlined symptom and ratings of 1-6 representing mild-to-severe difficulty with the symptom. The reliability and validity of the PCSS are well documented We also ask subjects to rank their 4 most burdensome symptoms (4MBS) at Day 1 and we analyze these separately. As stated in the Specific Aims the purpose of this study is to collect data that would further refine clinical endpoints that could be used for larger Phase 2 studies and possibly lead to the establishment of pivotal endpoints for Phase 3 registration trials. The 22 symptom PCSS assessment is designed to cover the full spectrum of concussion related symptoms across cognitive, emotional and somatic domains. In that regard the PCSS is particularly useful for diagnosis and monitoring recovery of patients post injury. […]

“ghrelin (GSS(Octanoyl)FLSPEHQRVQQRKESKKPPAKLQPR; UniProt Q9UBU3 24-51, looked up) [OXE-103, naturally occurring peptide comprising 28 amino acids that include an N-octanoyl group at the 3-position of serine]” was tested, and the “PCSS symptom balance_problems” value (Day 1) was 30, the “PCSS symptom difficulty_concentrating” value (Day 1) was 46 and the “PCSS symptom difficulty_remembering” value (Day 1) was 48. The PCSS symptom dizziness (Day 1) was 37, the PCSS symptom drowsiness (Day 1) was 38 and the PCSS symptom fatigue (Day 1) was 43. The “PCSS symptom feeling_in_a_fog” value (Day 1) was 46, the “PCSS symptom feeling_more_emotional” value (Day 1) was 31 and the “PCSS symptom feeling_slowed_down” value (Day 1) was 46. It also gave a PCSS symptom headache (Day 1) of 37, a PCSS symptom irritability (Day 1) of 35 and a PCSS symptom nausea (Day 1) of 18. The “PCSS symptom neck_pain” value (Day 1) was 38, the “PCSS symptom nervous_anxious” value (Day 1) was 35 and the “PCSS symptom numbness_or_tingling” value (Day 1) was 16. The PCSS symptom sadness (Day 1) was 28, the “PCSS symptom sensitivity_to_light” value (Day 1) was 35 and the “PCSS symptom sensitivity_to_noise” value (Day 1) was 36. The “PCSS symptom sleeping_less_than_usual” value (Day 1) was 15, the “PCSS symptom sleeping_more_than_usual” value (Day 1) was 24 and the “PCSS symptom trouble_falling_asleep” value (Day 1) was 37. For the same substance, the “PCSS symptom visual_problems” value (Day 1) was 30, the PCSS symptom vomiting (Day 1) was 2 and the “20% Responders - PCSS: Number of Responders” value (shortened to “20% Responders - PCSS: Number”) (Day 1) was 0. The “20% Responders - PCSS: Responder %” value (Day 1) was 0%, the “30% Responders - PCSS: Number of Responders” value (“30% Responders - PCSS: Number” below) (Day 1) was 0 and the “30% Responders - PCSS: Responder %” value (Day 1) was 0%. The “PCSS symptom balance_problems” value (Day 4) was 25, the “PCSS symptom difficulty_concentrating” value (Day 4) was 37 and the “PCSS symptom difficulty_remembering” value (Day 4) was 35. It also gave a PCSS symptom dizziness (Day 4) of 35, a PCSS symptom drowsiness (Day 4) of 39 and a PCSS symptom fatigue (Day 4) of 44. For the same substance, the “PCSS symptom feeling_in_a_fog” value (Day 4) was 30, the “PCSS symptom feeling_more_emotional” value (Day 4) was 24 and the “PCSS symptom feeling_slowed_down” value (Day 4) was 33. The PCSS symptom headache (Day 4) was 29, the PCSS symptom irritability (Day 4) was 30 and the PCSS symptom nausea (Day 4) was 11. The “PCSS symptom neck_pain” value (Day 4) was 29, the “PCSS symptom nervous_anxious” value (Day 4) was 25 and the “PCSS symptom numbness_or_tingling” value (Day 4) was 6. The PCSS symptom sadness (Day 4) was 17, the “PCSS symptom sensitivity_to_light” value (Day 4) was 25 and the “PCSS symptom sensitivity_to_noise” value (Day 4) was 26. The “PCSS symptom sleeping_less_than_usual” value (Day 4) was 23, the “PCSS symptom sleeping_more_than_usual” value (Day 4) was 32 and the “PCSS symptom trouble_falling_asleep” value (Day 4) was 32. The “PCSS symptom visual_problems” value (Day 4) was 18, the PCSS symptom vomiting (Day 4) was 1 and the “20% Responders - PCSS: Number” value (Day 4) was 4. The “20% Responders - PCSS: Responder %” value (Day 4) was 31%, the “30% Responders - PCSS: Number” value (Day 4) was 3 and the “30% Responders - PCSS: Responder %” value (Day 4) was 23%. The “PCSS symptom balance_problems” value (Day 8) was 30, the “PCSS symptom difficulty_concentrating” value (Day 8) was 41 and the “PCSS symptom difficulty_remembering” value (Day 8) was 35. For the same substance, the PCSS symptom dizziness (Day 8) was 28, the PCSS symptom drowsiness (Day 8) was 41 and the PCSS symptom fatigue (Day 8) was 45. The “PCSS symptom feeling_in_a_fog” value (Day 8) was 34, the “PCSS symptom feeling_more_emotional” value (Day 8) was 33 and the “PCSS symptom feeling_slowed_down” value (Day 8) was 36. The PCSS symptom headache (Day 8) was 34, the PCSS symptom irritability (Day 8) was 36 and the PCSS symptom nausea (Day 8) was 15. For the same substance, the “PCSS symptom neck_pain” value (Day 8) was 26, the “PCSS symptom nervous_anxious” value (Day 8) was 34 and the “PCSS symptom numbness_or_tingling” value (Day 8) was 12. For the same substance, the PCSS symptom sadness (Day 8) was 32, the “PCSS symptom sensitivity_to_light” value (Day 8) was 20 and the “PCSS symptom sensitivity_to_noise” value (Day 8) was 23. For the same substance, the “PCSS symptom sleeping_less_than_usual” value (Day 8) was 32, the “PCSS symptom sleeping_more_than_usual” value (Day 8) was 20 and the “PCSS symptom trouble_falling_asleep” value (Day 8) was 32. For the same substance, the “PCSS symptom visual_problems” value (Day 8) was 23, the PCSS symptom vomiting (Day 8) was 1 and the “20% Responders - PCSS: Number” value (Day 8) was 3. For the same substance, the “20% Responders - PCSS: Responder %” value (Day 8) was 23%, the “30% Responders - PCSS: Number” value (Day 8) was 2 and the “30% Responders - PCSS: Responder %” value (Day 8) was 15%. For the same substance, the “PCSS symptom balance_problems” value (Day 11) was 24, the “PCSS symptom difficulty_concentrating” value (Day 11) was 23 and the “PCSS symptom difficulty_remembering” value (Day 11) was 28. For the same substance, the PCSS symptom dizziness (Day 11) was 18, the PCSS symptom drowsiness (Day 11) was 33 and the PCSS symptom fatigue (Day 11) was 36. For the same substance, the “PCSS symptom feeling_in_a_fog” value (Day 11) was 23, the “PCSS symptom feeling_more_emotional” value (Day 11) was 20 and the “PCSS symptom feeling_slowed_down” value (Day 11) was 27. For the same substance, the PCSS symptom headache (Day 11) was 21, the PCSS symptom irritability (Day 11) was 28 and the PCSS symptom nausea (Day 11) was 10. The “PCSS symptom neck_pain” value (Day 11) was 18, the “PCSS symptom nervous_anxious” value (Day 11) was 19 and the “PCSS symptom numbness_or_tingling” value (Day 11) was 5. The PCSS symptom sadness (Day 11) was 22, the “PCSS symptom sensitivity_to_light” value (Day 11) was 18 and the “PCSS symptom sensitivity_to_noise” value (Day 11) was 19. The “PCSS symptom sleeping_less_than_usual” value (Day 11) was 15, the “PCSS symptom sleeping_more_than_usual” value (Day 11) was 19 and the “PCSS symptom trouble_falling_asleep” value (Day 11) was 21. For the same substance, the “PCSS symptom visual_problems” value (Day 11) was 12, the PCSS symptom vomiting (Day 11) was 1 and the “20% Responders - PCSS: Number” value (Day 11) was 9. The “20% Responders - PCSS: Responder %” value (Day 11) was 69%.
